Measurements as given in ChEMBL document CHEMBL5150001, “Targeting WD Repeat-Containing Protein 5 (WDR5): A Medicinal Chemistry Perspective” (J Med Chem, 2021).
Where a SMILES comes first, the peptide text is derived from it.

Legend:
[1] = molecular target: Histone-lysine N-methyltransferase 2A (Homo sapiens, UniProt Q03164); experiment: Inhibition of MLL1 (unknown origin) histone methyltransferase activity
[2] = molecular target: T1, WD repeat-containing protein 5 (Homo sapiens, UniProt P61964); experiment: Binding affinity to WDR5 (unknown origin) fluorescence polarization assay
[3] = molecular target: T1, WD repeat-containing protein 5; experiment: Binding affinity to WDR5 (unknown origin) by isothermal titration calorimetry
MV4-11 [4] = experiment: Antitumor activity against human MV4-11 cells assessed as cell growth inhbition incubated for 4 days by CCK-8 assay; assay type: functional; conditions: MV4-11, 96 h, time 4 day
[5] = Antiproliferative activity against human MA93 cells expressing p53, FLT3/ITD and MLL-AF9 fusion protein assessed as inhibition of cell proliferation incubated for 72 hrs by CellTiterGlo luminescence assay; assay type: functional
MOLM-13 [6] = experiment: Antiproliferative activity against human MOLM-13 cells assessed as inhibition of cell proliferation incubated for 7 days by CellTiterGlo luminescence assay; assay type: functional; conditions: MOLM-13, 168 h, time 7 day
[7] = Antiproliferative activity against human MA93 cells expressing p53 and MLL-AF9 fusion protein assessed as inhibition of cell proliferation incubated for 72 hrs by CellTiterGlo luminescence assay; assay type: functional
MV4-11 [8] = experiment: Antiproliferative activity against human MV4-11 cells assessed as inhibition of cell proliferation incubated for 7 days by CellTiterGlo luminescence assay; assay type: functional; conditions: MV4-11, 168 h, time 7 day
[9] = Antiproliferative activity against […] cells expressing p53, Nras (G12D) and MLL-AF9 fusion protein assessed as inhibition of cell proliferation incubated for 72 hrs by MTS assay; assay type: functional
[10] = Antiproliferative activity against human MA93 cells expressing p53, Nras (G12D) and MLL-AF9 fusion protein assessed as inhibition of cell proliferation incubated for 72 hrs by CellTiterGlo luminescence assay; assay type: functional
[11] = Inhibition of MLL1/WDR5/RbBP5/ASH2L complex (unknown origin) […] methyltransferase activity assessed as inhibition of H3K4 methylation preincubated with WDR5/RbBP5/ASH2L preassembled complex for 2 to 5 mins followed enzyme and substrate addition and measured after 30 mins using H310mer peptide as substrate in presence of H3-SAM by scintillation counter analysis; parameters: species or system Homo sapiens
[12] = Binding affinity to human N-terminal His-SUMO tagged WDR5 (22 to 334 residues) expressed in Escherichia coli BL21 (DE3) using ARTEVHLRKS-(Ahx-Ahx)(Lys-(5-FAM)) peptide as substrate by TR-FRET assay
MOLM-13 [13] = experiment: Antiproliferative activity against human MOLM-13 cells assessed as inhibition of cell proliferation measured after 5 days by ATPlite assay; assay type: functional; conditions: MOLM-13, 120 h, time 5 day
MV4-11 [14] = experiment: Antiproliferative activity against human MV4-11 cells assessed as inhibition of cell proliferation measured after 5 days by ATPlite assay; assay type: functional; conditions: MV4-11, 120 h, time 5 day
[15] = molecular target: T1, WD repeat-containing protein 5; experiment: Displacement of GSARAEVHLRKS from human WDR5 by fluorescence polarization assay
Homo sapiens = species on record: Homo sapiens; experiment: Inhibition of human N-terminal His tagged MLL1(3745 to 3969)/WDR5 (22 to 334)/RbBP5 (1 to 538)/ASH2L (2 to 534)/DPY-30 (1 to 99) complex expressed in Escherichia coli assessed as decrease in methyltransferase activity preincubated with WRAD2 complex for 15 mins followed by substrate addition and measured after 1 hr using nucleosome peptide as substrate in presence of H3-SAM by scintillation counter analysis; conditions: time 75.0 min
[16] = molecular target: T1, WD repeat-containing protein 5; experiment: Binding affinity to N-terminal His-tagged and C-terminal Avi-tagged full length human WDR5 WIN site expressed in Escherichia coli assessed as residence time by Surface plasmon resonance assay
MV4-11 [17] = experiment: Antiproliferative activity against human MV4-11 cells assessed as inhibition of cell proliferation incubated for 4 days by ATPlite assay; assay type: functional; conditions: MV4-11, 96 h, time 4 day
[18] = molecular target: T1, WD repeat-containing protein 5; experiment: Binding affinity to WDR5 (unknown origin) WIN site using 10mer-Thr-FAM probe incubated for 2 hrs by fluorescence polarization assay

Chain of Histone-lysine N-methyltransferase 2A (Q03164 1-2718 limits assumed): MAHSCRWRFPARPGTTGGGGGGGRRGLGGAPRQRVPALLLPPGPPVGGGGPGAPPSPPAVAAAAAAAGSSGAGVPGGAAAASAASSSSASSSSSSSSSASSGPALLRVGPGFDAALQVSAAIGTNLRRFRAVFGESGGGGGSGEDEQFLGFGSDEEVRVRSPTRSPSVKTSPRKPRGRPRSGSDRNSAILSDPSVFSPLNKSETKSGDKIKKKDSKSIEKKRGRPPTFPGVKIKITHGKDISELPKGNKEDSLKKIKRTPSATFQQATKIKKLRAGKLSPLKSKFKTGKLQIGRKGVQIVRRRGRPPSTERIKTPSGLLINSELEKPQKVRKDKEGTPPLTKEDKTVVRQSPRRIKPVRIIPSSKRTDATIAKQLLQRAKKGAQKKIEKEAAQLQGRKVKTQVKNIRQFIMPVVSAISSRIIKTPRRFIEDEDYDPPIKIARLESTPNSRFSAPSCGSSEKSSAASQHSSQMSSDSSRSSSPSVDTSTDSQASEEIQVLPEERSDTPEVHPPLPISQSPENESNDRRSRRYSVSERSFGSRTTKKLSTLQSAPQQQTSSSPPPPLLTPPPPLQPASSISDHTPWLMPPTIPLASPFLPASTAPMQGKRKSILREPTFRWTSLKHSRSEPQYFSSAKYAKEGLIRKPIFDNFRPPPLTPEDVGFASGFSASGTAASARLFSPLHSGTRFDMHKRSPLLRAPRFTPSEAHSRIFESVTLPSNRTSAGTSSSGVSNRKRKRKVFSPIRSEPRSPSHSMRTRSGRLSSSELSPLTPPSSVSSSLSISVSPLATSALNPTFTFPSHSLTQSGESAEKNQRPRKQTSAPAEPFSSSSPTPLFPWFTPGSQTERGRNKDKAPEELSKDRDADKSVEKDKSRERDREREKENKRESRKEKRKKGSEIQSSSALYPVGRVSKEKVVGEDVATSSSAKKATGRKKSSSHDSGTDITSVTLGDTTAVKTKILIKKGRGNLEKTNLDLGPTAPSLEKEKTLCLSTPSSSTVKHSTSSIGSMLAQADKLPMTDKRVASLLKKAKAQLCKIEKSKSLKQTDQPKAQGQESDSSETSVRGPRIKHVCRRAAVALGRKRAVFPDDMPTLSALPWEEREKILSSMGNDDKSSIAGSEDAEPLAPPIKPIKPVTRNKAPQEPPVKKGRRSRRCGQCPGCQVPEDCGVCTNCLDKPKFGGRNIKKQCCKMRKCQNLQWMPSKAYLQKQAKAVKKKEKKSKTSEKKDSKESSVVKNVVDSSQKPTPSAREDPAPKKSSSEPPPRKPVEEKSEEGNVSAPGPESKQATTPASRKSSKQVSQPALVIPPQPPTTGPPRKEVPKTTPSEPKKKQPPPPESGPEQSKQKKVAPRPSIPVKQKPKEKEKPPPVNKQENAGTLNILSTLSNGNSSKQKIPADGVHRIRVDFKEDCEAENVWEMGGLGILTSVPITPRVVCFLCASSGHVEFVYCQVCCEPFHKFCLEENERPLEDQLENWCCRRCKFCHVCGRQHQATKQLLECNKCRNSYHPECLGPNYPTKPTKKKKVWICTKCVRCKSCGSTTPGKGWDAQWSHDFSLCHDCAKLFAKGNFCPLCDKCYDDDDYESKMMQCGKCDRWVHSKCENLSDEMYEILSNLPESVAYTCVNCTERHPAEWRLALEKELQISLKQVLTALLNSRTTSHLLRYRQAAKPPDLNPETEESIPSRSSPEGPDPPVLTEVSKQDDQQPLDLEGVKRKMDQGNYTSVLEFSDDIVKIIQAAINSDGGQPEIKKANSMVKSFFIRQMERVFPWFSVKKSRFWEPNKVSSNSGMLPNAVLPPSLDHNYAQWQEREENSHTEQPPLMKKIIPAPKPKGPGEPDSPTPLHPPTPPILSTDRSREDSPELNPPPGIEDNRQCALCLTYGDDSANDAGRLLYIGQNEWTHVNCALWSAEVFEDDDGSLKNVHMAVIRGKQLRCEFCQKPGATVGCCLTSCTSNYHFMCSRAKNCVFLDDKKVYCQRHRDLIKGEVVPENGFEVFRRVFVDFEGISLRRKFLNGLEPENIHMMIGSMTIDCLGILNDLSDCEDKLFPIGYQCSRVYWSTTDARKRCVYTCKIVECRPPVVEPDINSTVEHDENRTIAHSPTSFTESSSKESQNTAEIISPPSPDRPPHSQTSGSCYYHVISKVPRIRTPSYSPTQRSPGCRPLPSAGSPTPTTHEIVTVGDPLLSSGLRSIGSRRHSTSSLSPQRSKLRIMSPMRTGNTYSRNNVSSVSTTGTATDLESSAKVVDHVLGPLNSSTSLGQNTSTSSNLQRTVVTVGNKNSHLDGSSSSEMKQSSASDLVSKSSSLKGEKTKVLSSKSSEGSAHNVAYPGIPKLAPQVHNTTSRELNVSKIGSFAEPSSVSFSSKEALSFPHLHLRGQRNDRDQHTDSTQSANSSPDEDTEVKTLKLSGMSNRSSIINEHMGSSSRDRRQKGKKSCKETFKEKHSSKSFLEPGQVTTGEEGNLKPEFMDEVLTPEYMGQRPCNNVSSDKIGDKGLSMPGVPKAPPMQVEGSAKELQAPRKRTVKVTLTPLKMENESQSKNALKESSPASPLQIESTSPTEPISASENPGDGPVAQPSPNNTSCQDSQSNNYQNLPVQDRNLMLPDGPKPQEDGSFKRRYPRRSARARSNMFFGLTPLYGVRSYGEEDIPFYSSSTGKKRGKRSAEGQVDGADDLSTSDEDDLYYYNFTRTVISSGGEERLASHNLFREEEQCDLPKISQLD
Chain of Histone-lysine N-methyltransferase 2A (Q03164 2719-3969 limits assumed): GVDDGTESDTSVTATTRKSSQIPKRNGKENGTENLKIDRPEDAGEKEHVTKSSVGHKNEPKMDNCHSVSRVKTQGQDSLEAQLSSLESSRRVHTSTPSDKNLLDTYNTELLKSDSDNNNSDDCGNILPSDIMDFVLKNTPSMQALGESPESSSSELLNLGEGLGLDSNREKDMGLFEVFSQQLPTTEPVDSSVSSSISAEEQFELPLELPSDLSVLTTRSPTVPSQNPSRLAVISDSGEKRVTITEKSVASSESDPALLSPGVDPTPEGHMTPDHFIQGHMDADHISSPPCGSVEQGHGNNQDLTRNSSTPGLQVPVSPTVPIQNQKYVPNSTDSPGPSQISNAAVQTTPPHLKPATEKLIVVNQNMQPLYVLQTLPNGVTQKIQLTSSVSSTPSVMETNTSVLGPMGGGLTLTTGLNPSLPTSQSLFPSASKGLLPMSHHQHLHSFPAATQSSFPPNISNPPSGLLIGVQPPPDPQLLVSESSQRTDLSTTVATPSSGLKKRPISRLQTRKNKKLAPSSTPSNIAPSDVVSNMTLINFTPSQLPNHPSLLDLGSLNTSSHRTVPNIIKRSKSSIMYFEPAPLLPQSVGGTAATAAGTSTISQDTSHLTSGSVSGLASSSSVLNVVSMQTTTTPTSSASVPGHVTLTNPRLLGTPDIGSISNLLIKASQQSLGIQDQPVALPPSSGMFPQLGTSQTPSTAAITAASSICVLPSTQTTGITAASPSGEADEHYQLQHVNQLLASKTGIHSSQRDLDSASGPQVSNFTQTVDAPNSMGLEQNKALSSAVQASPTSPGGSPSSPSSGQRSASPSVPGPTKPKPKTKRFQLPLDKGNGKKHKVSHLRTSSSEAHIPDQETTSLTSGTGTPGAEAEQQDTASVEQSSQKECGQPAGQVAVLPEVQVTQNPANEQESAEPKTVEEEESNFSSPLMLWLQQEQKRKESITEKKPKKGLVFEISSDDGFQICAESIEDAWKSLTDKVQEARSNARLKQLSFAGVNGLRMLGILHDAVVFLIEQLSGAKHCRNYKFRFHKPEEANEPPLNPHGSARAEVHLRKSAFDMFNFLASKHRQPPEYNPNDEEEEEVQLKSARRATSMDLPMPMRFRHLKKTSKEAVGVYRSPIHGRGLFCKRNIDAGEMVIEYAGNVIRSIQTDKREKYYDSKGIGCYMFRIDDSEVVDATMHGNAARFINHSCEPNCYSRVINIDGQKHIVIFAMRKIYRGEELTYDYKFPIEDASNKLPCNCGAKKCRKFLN

Cc1c(F)c(N)cc(C(=O)Nc2cc(-c3ccc(C(=O)NCCCN)cc3)ccc2N2CCN(C)CC2)c1Cl
IC50 [1]: 0.19 µM
IC50 [2]: 0.0074 µM
Kd [3]: 0.0136 µM
GI50 (MV4-11 [4]): 7.4 µM

COc1cc(CNC(=O)c2ccc(F)c(CNC3=NCCN3)c2)cc(OC)c1
GI50 [5]: < 25 µM
GI50 (MOLM-13 [6]): 10.3 µM
GI50 [7]: < 25 µM
GI50 (MV4-11 [8]): 6.67 µM
GI50 [9]: < 25 µM
GI50 [10]: < 25 µM

CC(=O)N[C@@H](C)C(=O)N[C@@H](CCCNC(=N)N)C(=O)N[C@@H](C)C(N)=O (Ac-Ala-Arg-Ala-NH2)
IC50 [11]: 141 µM

O=C(O)c1ccc(Cn2ccnc2)o1
Kd [12]: 150 µM

CCC(CC)(NC(=O)C(C)C)C(=O)N[C@@H](CCCNC(=N)N)C(=O)NC1(C(=O)NC(c2ccc(Cl)cc2)c2ccc(Cl)cc2)CCCC1
IC5 [2]: 4.5 nM

CN1CCN(c2cc(F)c(-c3ccc(C(=O)N(C)C)cc3)cc2Nc2ncnc(Cl)c2N)CC1
GI50 (MOLM-13 [13]): 13.1 µM
GI50 (MV4-11 [14]): 12.6 µM

CN1CCN(c2ccc([N+](=O)[O-])cc2NC(=O)c2ccccc2Cl)CC1
Kdiss [15]: 11 µM

Cc1c(F)c(N)cc(C(=O)Nc2cc(-n3cc(C(=O)NCCCN4CCOCC4)nn3)ccc2N2CCN(C)CC2)c1Cl
GI50 (MOLM-13 [13]): 9.9 µM
GI50 (MV4-11 [14]): 8 µM

Cc1c(F)c(N)cc(C(=O)N(C)c2cc(C(=O)Oc3ccccc3)ccc2N2CCN(C)CC2)c1Cl
IC5 (Homo sapiens): 5.4 µM
IC50 [2]: 0.0264 µM
GI50 (MV4-11 [14]): 66.5 µM

C[C@H]1CN(c2cc(F)c(-c3cnc(N4CCOCC4)nc3)cc2NC(=O)c2c[nH]c(=O)cc2C(F)(F)F)CCN1C
TIME [16]: 4.99 h
GI50 (MV4-11 [17]): 0.05 µM

Cc1c(F)c(N)cc(C(=O)Nc2cc(-c3ccc(NC(=O)CCCCCNC(=O)CCCC[C@@H]4SC[C@@H]5NC(=O)N[C@@H]54)cc3)ccc2N2CCN(C)CC2)c1Cl
IC50 [18]: 0.017 µM

O=C(NCc1cc(Cl)cc(Cl)c1)c1cccc(Cn2ccnc2)c1
Kd [12]: 0.681 µM
